Results taken from PubChem BioAssay AID330 (DTP/NCI, 2004).
“And” between values parts separate entries of the source, which are not always exact repeats. Equal entries are not always repeated. Toxic doses and inconclusive results are not listed.

Test system: P388 leukemia ip, CD2F1 mice, survival T/C
Test: NCI In Vivo Anticancer Drug Screen. Data for tumor model P388 Leukemia (intraperitoneal) in CD2F1 (CDF1) mice
Settings: endpoint: median survival time, higher = longer survival
Procedure, shortened: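 Mice carrying the transplanted tumor received test compound or vehicle. Survival was recorded in each group, and the value is the treated-group measurement divided by that of the vehicle-treated control group.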

[1] = dose: 50.0 mg/kg/injection, schedule: Q01DX009 (ip), vehicle: water
[2] = dose: 100.0 mg/kg/injection, schedule: Q01DX009 (ip), vehicle: water
[3] = dose: 50.0 mg/kg/injection, schedule: Q01DX009 (ip), vehicle: saline with Tween-80
[4] = dose: 100.0 mg/kg/injection, schedule: Q01DX009 (ip), vehicle: saline with Tween-80
[5] = dose: 200.0 mg/kg/injection, schedule: Q01DX009 (ip), vehicle: saline with Tween-80
[6] = dose: 50.0 mg/kg/injection, schedule: Q01DX009 (ip), vehicle: Klucel (hydroxypropylcellulose) (HPC)
[7] = dose: 100.0 mg/kg/injection, schedule: Q01DX009 (ip), vehicle: Klucel (hydroxypropylcellulose) (HPC)
[8] = dose: 200.0 mg/kg/injection, schedule: Q01DX009 (ip), vehicle: Klucel (hydroxypropylcellulose) (HPC)
[9] = dose: 60.0 mg/kg/injection, schedule: Q01DX005 (ip), vehicle: saline with Tween-80
[10] = dose: 120.0 mg/kg/injection, schedule: Q01DX005 (ip), vehicle: saline with Tween-80
[11] = dose: 240.0 mg/kg/injection, schedule: Q01DX005 (ip), vehicle: saline with Tween-80
[12] = dose: 60.0 mg/kg/injection, schedule: Q01DX005 (ip), vehicle: saline
[13] = dose: 120.0 mg/kg/injection, schedule: Q01DX005 (ip), vehicle: saline
[14] = dose: 12.5 mg/kg/injection, schedule: Q01DX009 (ip), vehicle: saline with Tween-80
[15] = dose: 25.0 mg/kg/injection, schedule: Q01DX009 (ip), vehicle: saline
[16] = dose: 50.0 mg/kg/injection, schedule: Q01DX009 (ip), vehicle: saline
[17] = dose: 100.0 mg/kg/injection, schedule: Q01DX009 (ip), vehicle: saline
[18] = dose: 200.0 mg/kg/injection, schedule: Q01DX009 (ip), vehicle: saline
[19] = dose: 25.0 mg/kg/injection, schedule: Q01DX009 (ip), vehicle: saline with Tween-80

NNS(=O)(=O)c1cccc([N+](=O)[O-])c1
T/C (dose: 12.5 mg/kg/injection, schedule: Q01DX009 (ip), vehicle: other): 107 % of control
T/C (dose: 25.0 mg/kg/injection, schedule: Q01DX009 (ip), vehicle: other): 98 % of control
T/C (dose: 50.0 mg/kg/injection, schedule: Q01DX009 (ip), vehicle: other): 103 % of control

COc1cc(C(=O)OC(CN2CCOCC2)Cn2nnc3c(OC)c(OC)c(OC)cc3c2=O)cc(OC)c1OC (stereo not drawn)
T/C [1]: 100 % of control
T/C [2]: 100 % of control
T/C (dose: 200.0 mg/kg/injection, schedule: Q01DX009 (ip), vehicle: water): 108 % of control

CC1(C)CCCc2c(-c3ccccc3)cc3c4[nH]c5ccccc5c4cc[n+]3c21
T/C [3]: 99 % of control
T/C [4]: 99 % of control
T/C [5]: 101 % of control

CCCCCCCCCCN1CCS(=O)(=O)CC1
T/C [6]: 101 % of control
T/C [7]: 100 % of control
T/C [8]: 98 % of control

Cc1ccccc1NC(=O)C(=O)C(C#N)c1c(Cl)cccc1Cl (stereo not drawn)
T/C [9]: 114 % of control
T/C [10]: 100 % of control
T/C [11]: 99 % of control

CCOC1(OCC)N(S(=O)(=O)c2ccc(C)cc2)C(=O)C(=O)N1S(=O)(=O)c1ccc(C)cc1
T/C (dose: 100.0 mg/kg/injection, schedule: Q04DX002 (ip), vehicle: saline): 100 % of control
T/C (dose: 200.0 mg/kg/injection, schedule: Q04DX002 (ip), vehicle: saline): 106 % of control
T/C (dose: 400.0 mg/kg/injection, schedule: Q04DX002 (ip), vehicle: saline): 103 % of control

N#Cc1ccc(C(=O)C=[N+]=[N-])cc1
T/C (dose: 100.0 mg/kg/injection, schedule: Q04DX003 (ip), vehicle: Klucel (hydroxypropylcellulose) (HPC)): 109 % of control
T/C (dose: 200.0 mg/kg/injection, schedule: Q04DX003 (ip), vehicle: Klucel (hydroxypropylcellulose) (HPC)): 93 % of control
T/C (dose: 400.0 mg/kg/injection, schedule: Q04DX003 (ip), vehicle: Klucel (hydroxypropylcellulose) (HPC)): 100 % of control

CCc1c(-c2ccccc2)nc(N)nc1-c1nc(N)nc(-c2ccccc2)c1CC
T/C [12]: 98 % of control
T/C [13]: 100 % of control

O=C(O)C(S)c1ccc2ccccc2c1 (stereo not drawn)
T/C [7]: 90 % of control
T/C [8]: 100 % of control

O=c1nc(Oc2ccccc2)nc2ncccn12
T/C (dose: 6.25 mg/kg/injection, schedule: Q01DX009 (ip), vehicle: saline with Tween-80): 101 % of control
T/C [14]: 112 % of control
T/C [3]: 114 % of control

FC(F)(F)c1cccc(C2CNCCO2)c1 (stereo not drawn)
T/C (dose: 12.5 mg/kg/injection, schedule: Q01DX009 (ip), vehicle: saline): 100 % of control
T/C [15]: 105 % of control
T/C [16]: 100 % of control

CSc1nc(SC)c2c(C)cn(COCCOC(=O)c3ccccc3)c2n1
T/C (dose: 100.0 mg/kg/injection, schedule: Q01DX001 (ip), vehicle: saline with Tween-80): 104 % of control
T/C (dose: 200.0 mg/kg/injection, schedule: Q01DX001 (ip), vehicle: saline with Tween-80): 100 % of control
T/C (dose: 400.0 mg/kg/injection, schedule: Q01DX001 (ip), vehicle: saline with Tween-80): 91 % of control

CC(O)CNC1c2ccccc2CC1O (stereo not drawn)
T/C [15]: 108 % of control
T/C [16]: 100 % of control
T/C [17]: 100 % of control

C=C(C)n1c(=O)[nH]c2ccccc21
T/C [16]: 87 % of control
T/C [17]: 87 % of control
T/C [18]: 89 % of control

C[C@]12CC[C@H](O)C[C@@H]1CC[C@@H]1[C@@H]2C(=O)C[C@]2(C)C3=CC(=O)O[C@H]3C[C@@H]12
T/C [19]: 109 % of control
T/C (dose: 25.0 mg/kg/injection, schedule: Q04DX003 (ip), vehicle: saline with Tween-80): 117 % of control
T/C [3]: 118 % of control
T/C (dose: 50.0 mg/kg/injection, schedule: Q04DX003 (ip), vehicle: saline with Tween-80): 104 % of control
T/C [4]: 86 % of control
T/C (dose: 100.0 mg/kg/injection, schedule: Q04DX003 (ip), vehicle: saline with Tween-80): 113 % of control and 95 % of control

C[Si](C)(C)CCCn1cc(F)c(=O)n(CCC[Si](C)(C)C)c1=O
T/C [9]: 104 % of control
T/C [10]: 104 % of control
T/C [11]: 101 % of control

CC1=CC2(C)OC3C(=O)N(c4ccc(Cl)cc4)C(=O)C3C2N=C1 (stereo not drawn)
T/C [9]: 104 % of control
T/C [10]: 99 % of control
T/C [11]: 100 % of control

COc1ccc2c(c1OC)C1=C(C2=O)c2cc3c(cc2CCN1)OCO3
T/C (dose: 50.0 mg/kg/injection, schedule: Q01DX005 (ip), vehicle: saline + Tween-80 + alcohol): 102 % of control
T/C (dose: 100.0 mg/kg/injection, schedule: Q01DX005 (ip), vehicle: saline + Tween-80 + alcohol): 100 % of control
T/C (dose: 200.0 mg/kg/injection, schedule: Q01DX005 (ip), vehicle: saline + Tween-80 + alcohol): 102 % of control

CCC1=NC(C)(C)CO1
T/C [16]: 104 % of control
T/C [17]: 97 % of control
T/C [18]: 97 % of control

CC(=O)C(=O)C1=C2CCCN2CCc2cc3c(cc21)OCO3
T/C (dose: 6.25 mg/kg/injection, schedule: Q01DX009 (ip), vehicle: water): 92 % of control
T/C (dose: 12.5 mg/kg/injection, schedule: Q01DX009 (ip), vehicle: water): 98 % of control
T/C (dose: 25.0 mg/kg/injection, schedule: Q01DX009 (ip), vehicle: water): 93 % of control
T/C [1]: 101 % of control
T/C [2]: 99 % of control

Nc1nc(N)c2cc(CNc3ccc(C(=O)NC(CC(=O)O)CC(=O)O)cc3)ccc2n1
T/C [14]: 203 % of control
T/C [19]: 226 % of control
T/C (dose: 100.0 mg/kg/injection, schedule: Q01DX009 (ip), vehicle: saline sonified): 168 % of control
T/C [4]: 99 % of control
T/C (dose: 100.0 mg/kg/injection, schedule: Q04DX003 (ip), vehicle: saline sonified): 181 % of control
T/C (dose: 200.0 mg/kg/injection, schedule: Q01DX009 (ip), vehicle: saline sonified): 204 % of control
T/C [5]: 87 % of control
T/C (dose: 200.0 mg/kg/injection, schedule: Q04DX003 (ip), vehicle: saline sonified): 150 % of control
T/C (dose: 400.0 mg/kg/injection, schedule: Q01DX009 (ip), vehicle: saline sonified): 159 % of control
T/C (dose: 400.0 mg/kg/injection, schedule: Q04DX003 (ip), vehicle: saline sonified): 113 % of control

O=C(NN1C(=O)CS(=O)(=O)C1c1ccc(F)cc1)c1ccncc1 (stereo not drawn)
T/C (dose: 50.0 mg/kg/injection, schedule: Q01DX005 (ip), vehicle: saline with Tween-80): 98 % of control
T/C (dose: 100.0 mg/kg/injection, schedule: Q01DX005 (ip), vehicle: saline with Tween-80): 97 % of control
T/C (dose: 200.0 mg/kg/injection, schedule: Q01DX005 (ip), vehicle: saline with Tween-80): 88 % of control

O=C1NN2CCN=C2c2ccccc21
T/C [9]: 100 % of control
T/C [10]: 104 % of control
T/C [11]: 103 % of control

O=C(O)c1ccc(-c2nn[nH]n2)cc1
T/C (dose: 6.25 mg/kg/injection, schedule: Q01DX009 (ip), vehicle: Klucel (hydroxypropylcellulose) (HPC)): 107 % of control
T/C (dose: 12.5 mg/kg/injection, schedule: Q01DX009 (ip), vehicle: Klucel (hydroxypropylcellulose) (HPC)): 103 % of control
T/C (dose: 25.0 mg/kg/injection, schedule: Q01DX009 (ip), vehicle: Klucel (hydroxypropylcellulose) (HPC)): 110 % of control
T/C [7]: 92 % of control
T/C [8]: 89 % of control

CC(C)C(NC(=O)C1CCCN1)P(=O)(O)O (stereo not drawn)
T/C [12]: 101 % of control
T/C [13]: 104 % of control
T/C (dose: 240.0 mg/kg/injection, schedule: Q01DX005 (ip), vehicle: saline): 104 % of control

COc1cc(Br)c(/C=N/O)cc1OC
T/C (dose: 50.0 mg/kg/injection, schedule: Q01DX005 (ip), vehicle: Klucel (hydroxypropylcellulose) (HPC)): 104 % of control
T/C (dose: 100.0 mg/kg/injection, schedule: Q01DX005 (ip), vehicle: Klucel (hydroxypropylcellulose) (HPC)): 95 % of control
T/C (dose: 200.0 mg/kg/injection, schedule: Q01DX005 (ip), vehicle: Klucel (hydroxypropylcellulose) (HPC)): 91 % of control

CCCCCCCCCCCC(=O)Nc1ncc([N+](=O)[O-])s1
T/C [6]: 101 % of control
T/C [7]: 102 % of control
T/C [8]: 106 % of control
